SMILES strings stand for the structures.

Format in all cases: cell-based
In one experiment the test system is PMN-superoxide. Put plainly: Inhibition of PMN (polymorphonuclear) superoxide secretion. The settings on record: human PMN granulocytes primed with TNF-α, stimulated with fMLP; reduction of ferricytochrome C; read-out: The median inhibition concentration (IC50, nM) of PMN-superoxide. On the procedure: The compounds of the present invention also show similar activities in the ability to inhibit PMN (polymorphonuclear) superoxide secretion which is also indicative of potentially useful anti-inflammatory drugs. The compounds were tested using the following procedure:
Human polymorphonuclear (PMN) granulocytes were isolated from human blood by dextran sedimentation, Lymphoprep® fractionation and hypotonic lysis of contaminating erythrocytes. Superoxide anion generation was measured as the superoxide dismutase inhibitable reduction of ferricytochrome C (Madhu, S. B. et al, Inflammation, 16, 241, (1992)). The cells were suspended in Hanks' balanced salt solution, and incubated for 10 minutes at 37° C. with test compounds. The cells were primed by the addition of TNF-α (3 ng/ml final concentration) for 10 minutes, and then ferricytochrome C, (final concentration 750 μg/ml), bovine serum albumin (BSA, final concentration 1 mg/ml) and formyl-methionyl-leucyl-phenylalanine (fMLP, final concentration 10^−7 M) were added for 3 minutes. The cells were chilled on ice, and were spun down. The optical densities in the cell-free supernatant was measured in a spectrophotometer. The median inhibitory concentration (IC50) of the compounds was calculated.

A further experiment deals with TNF-α. Put plainly: Inhibition of TNF-α secretion in LPS stimulated peripheral blood mononuclear cells. The settings on record: PBMC; LPS stimulated human peripheral blood mononuclear cells; 18 hours; ELISA of medium; read-out: The median inhibition concentration (IC50, nM) of TNF-α. On the procedure:
(§1) To study the effect of the compound of the present invention in vitro the inhibition of the IL-1β and TNF-α secretion was measured using the following procedure:
(§2) Cytokine production was measured in the media from lipopolysaccharide (LPS) stimulated peripheral blood mononuclear cells. The mononuclear cells were isolated from human peripheral blood by Lymphoprep® (Nycomed, Norway) fractionation and suspended in RPMI 1640 (growth medium) with foetal calf serum (FCS, 2%), at a concentration of 5×10^5 cells/ml. The cells were incubated in 24-well tissue culture plates in 1 ml aliquots. Test compounds were dissolved in dimethylsulfoxide (DMSO, 10 mM) and were diluted with the medium. Compounds were added to the cells for 30 minutes, then LPS ([…] final concentration) was added. The plates were incubated for 18 hours, and the concentration of IL-1β and TNF-α in the medium was determined by enzyme-linked immunosorbent assays. The median inhibitory concentrations (IC50) of the compounds were calculated.
For orientation: An ELISA detects its analyte on a solid surface through an enzyme-linked reagent.

For the next experiment, the system named is IL-1β. Put plainly: Inhibition of IL-1β secretion in LPS stimulated peripheral blood mononuclear cells. The settings on record: PBMC; LPS stimulated human peripheral blood mononuclear cells; 18 hours; ELISA of medium; read-out: The median inhibition concentration (IC50, nM) of IL-1β. On the procedure:
as §1, §2

As for `Cc1ccccc1Nc1ccc(C(=O)c2ccccc2C)c(Cl)c1` [Compound 102, 2-Chloro-2′-methyl-4-(2-methyl-phenylamino)benzophenone], the IC50 is 6.3 nM in the experiment on PMN-superoxide, 4 nM with TNF-α and 13 nM in the experiment with IL-1β.

Turning to `Cc1ccccc1C(=O)c1ccc(Nc2ccccc2F)cc1Cl` [Compound 105, 2-Chloro-4-(2-fluoro-phenylamino)-2′-methylbenzophenone], the figures for the IC50 in the experiment on PMN-superoxide, in the experiment on TNF-α and in the experiment with IL-1β were 13 nM, 4 nM and 25 nM, respectively.

For `Cc1ccccc1C(=O)c1ccc(Nc2cccc(Cl)c2)cc1Cl` [Compound 109, 2-Chloro-4-(3-chloro-phenylamino)-2′-methylbenzophenone], the IC50 in the experiment on PMN-superoxide came out at 20 nM; in the experiment on TNF-α, 7.9 nM; in the experiment on IL-1β, 50 nM.

For the molecule `Cc1cc(F)ccc1Nc1ccc(C(=O)c2ccccc2C)c(Cl)c1` [Compound 116, 2-Chloro-4-(4-fluoro-2-methyl-phenylamino)-2′-methylbenzophenone], the IC50 with PMN-superoxide was 3.7 nM; with TNF-α, 7.9 nM; with IL-1β, 32 nM.

Take `Cc1ccccc1C(=O)c1ccc(Nc2ccc(Cl)cc2)cc1Cl` [Compound 119, 2-Chloro-4-(4-chloro-phenylamino)-2′-methylbenzophenone]: the IC50 in the experiment on PMN-superoxide was determined as 5 nM; with TNF-α it was 16 nM; in the experiment on IL-1β, 40 nM.

With `Cc1ccc(F)cc1Nc1ccc(C(=O)c2ccccc2C)c(Cl)c1` [Compound 130, 2-Chloro-4-(5-fluoro-2-methyl-phenylamino)-2′-methylbenzophenone], the figures for the IC50 in the experiment with PMN-superoxide, in the experiment with TNF-α and in the experiment on IL-1β were 50 nM, 6.3 nM and 40 nM, respectively.

On to `Cc1ccccc1C(=O)c1ccc(Nc2cccc(F)c2C)cc1Cl` [Compound 131, 2-Chloro-4-(3-fluoro-2-methyl-phenylamino)-2′-methylbenzophenone], for which the IC50 in the experiment on PMN-superoxide worked out at 13 nM; with TNF-α, 4 nM; in the experiment with IL-1β, 13 nM.

Turning to `Cc1cc(Br)ccc1Nc1ccc(C(=O)c2ccccc2C)c(Cl)c1` [Compound 136, 4-(4-Bromo-2-methyl-phenylamino)-2-chloro-2′-methylbenzophenone], the results for the IC50 in the experiment with PMN-superoxide, in the experiment with TNF-α and in the experiment on IL-1β were 100 nM, 8 nM and 100 nM, respectively.

For `Cc1ccccc1C(=O)c1ccc(Nc2ccccc2N)cc1Cl` [ref. A), 4-(2-Aminophenylamino)-2-chloro-2′-methylbenzophenone, reference compound], the figures for the IC50 in the experiment on PMN-superoxide, in the experiment with TNF-α and in the experiment with IL-1β were 5 nM, 7.1 nM and 13 nM, respectively.

(Values after patent US20030013770A1, “Aminobenzophenones as inhibitors of il 1b and tnf” (priority 2001, published 2003).)
